ChEMBL document CHEMBL3507680, “University of Dundee, Gates Library screen for HepG2 cell viability”

Assay: Human HepG2 cell viability assay in 384 well format
Assay type: toxicity, cell-based
Design: dose 125 nL, time 70.5 hour; cytotoxicity at 70.5 h: concentration not given beside the values
Details: HepG2 cells, read-out: Inhibition

Row | Structure (SMILES) | cytotoxicity at 70.5 h
1 | Cc1ccccc1CN(CCN(C)C)Cc1ccc(C(=O)O)cc1 | -5.98%
2 | Cn1ncc2c(N3CCS(=O)(=O)CC3)nc(C3CCCC3)nc21 | -6%
3 | CC(C)[C@H]1COC(=O)N1Cc1noc(-c2ccccc2)n1 | -7.59%
4 | O=C(Nc1cnn(CC(=O)N2CCCO2)c1)c1ccccc1 | 8.2%
5 | O=C(NCCn1ccnc1C1CCOC1)c1cccnc1 (configuration not stated) | -1.19%
6 | O=S(=O)(NCC1COc2ccccc2C1)N1CCCC1 (configuration not stated) | -2.58%
7 | O=C(C1CCS(=O)(=O)CC1)N1CCC(c2ccc(F)cc2)C1 (configuration not stated) | 4.45%
8 | CC(=O)c1cnc(NCCCN2CCOCC2)nc1C | 14.7%
9 | Cc1cc(NC2CCN(CC3CCCO3)CC2)n2nc(C)c(C)c2n1 (configuration not stated) | 4.66%
10 | CC(C)CN(Cc1ccc(-n2cncn2)cc1)Cc1ccccn1 | -10.8%
11 | CSCCC(=O)NCc1cc2n(n1)CCCN(C1CCCCC1)C2 | 34.5%
12 | Cc1n[nH]c(C)c1Sc1ccccc1NC(=O)N1CCOCC(O)C1 (configuration not stated) | 2.32%
13 | CN(Cc1cccc(CCN)c1)Cc1cccc2ncccc12 | -16.2%
14 | CC(C)(O)CCc1cccc(C(=O)N2CCC[C@H]2C(N)=O)c1 | 29.2%
15 | COCC[C@]1(O)CCN(c2ncc(Cl)cc2F)C[C@H]1C | -12.3%
16 | O[C@@]1(CNCCCNc2cccnc2)CCCN2CCCC[C@@H]21 | -5.62%
17 | COC1CCN(S(=O)(=O)N2CCCC(c3cccc(C(=O)O)c3)C2)CC1 (configuration not stated) | -9.91%
18 | COc1ncc(-c2ccc(C(N)=O)cc2)c(OC)n1 | -8.59%
19 | CCN1CCc2[nH]cnc2C12CCN(C(=O)CCc1cccs1)CC2 | 6.97%
20 | COCc1nc(N(C)CCSc2ccccc2)c2cnn(C)c2n1 | -5.78%
21 | Cc1ccc(CN(CCN(C)C)Cc2ncc[nH]2)s1 | -5.13%
22 | O[C@H]1CCCC[C@@H]1N1CCN(CCCc2ccc3c(c2)OCO3)CC1 | -6.44%
23 | COc1c(F)cc(CN2CCC3(CC2)CN(C)C(=O)O3)cc1Cl | -7.54%

Row | Structure (SMILES) | cytotoxicity at 70.5 h
24 | Cc1nc(N2CCC(C(O)c3nccn3C)CC2)c2cccnc2n1 (configuration not stated) | 18.9%
25 | COCCN1CCCC(O)(CN2CCN(c3ccncc3C)CC2)C1=O (configuration not stated) | 5.87%
26 | CCOC(=O)N1CCC(N2Cc3ncccc3C2=O)CC1 | 3.24%
27 | CN(CCn1ccc2ccccc21)C(=O)Cc1nnn[nH]1 | 17.9%
28 | O=C1CC(NCc2cnc(-c3cccs3)nc2)CN1c1ccccc1 (configuration not stated) | -2.68%
29 | CCN(Cc1nc(C)no1)C(=O)C1CC(=O)N(Cc2cccnc2)C1 (configuration not stated) | 17.6%
30 | COc1cccc(CN2CCN(c3noc(C(C)C)n3)CC2)c1F | 1.87%
31 | CCOc1ncccc1Cn1cc(-c2nccn2C)nn1 | -10.3%
32 | O=C1CCC(C(=O)N2CCOC(Cc3ccccc3Cl)C2)=NN1 (configuration not stated) | -8.63%
33 | c1c(-c2nc(CN3CCOCC3)no2)nnn1CC1CCCCC1 | -13.5%
34 | CCn1nc(CC(C)C)cc1C(=O)NCCS(=O)(=O)N(C)C | 3.89%
35 | CC(=O)NCCCc1ncnn1-c1cccc(Cl)c1 | 1.57%
36 | CN(C)C(=O)N1CCN(C(=O)Nc2nc(-c3ccccc3)ns2)CC1 | -5.92%
37 | COCCCN1C(=O)CC[C@H]2CN(Cc3ccc4nonc4c3)CC[C@H]21 | -5.42%
38 | CC(C)=CCN1C[C@H]2CC[C@@H]1CN(C(=O)Cc1c(C)nc(C)[nH]c1=O)C2 | 1.03%
39 | CN(C)c1cnn(CC(=O)N2Cc3ccccc3C2)c(=O)c1 | 22%
40 | O=C1C[C@H]2CC[C@@H](CN1)N2C1CCOCC1 | -1.49%
41 | O=c1[nH]ccc2cc(-c3cc(O)cc(CCC4CCCCN4)c3)ccc12 (configuration not stated) | -7.29%
42 | Cc1sc2nc(CCN)nc(N(CCN(C)C)CC3CCCO3)c2c1C (configuration not stated) | 5.16%
43 | Cc1noc(C(C)N(C)CC(=O)NCCc2ccc(Cl)cc2)n1 (configuration not stated) | 24.6%
44 | CC(=O)NCc1cc2n(n1)CCN(Cc1ccccc1OC(F)(F)F)C2 | -3.35%
45 | COc1cc(C(=O)NCCS(=O)(=O)N(C)C)c2ccccc2n1 | 1.37%
46 | CC1(C)CC(CC(=O)N2CC(C)(C)[C@@](C)(O)C2)CC(C)(C)N1 | 13%

Row | Structure (SMILES) | cytotoxicity at 70.5 h
47 | Cc1ccccc1Oc1ncccc1CNS(=O)(=O)N(C)C | -1.73%
48 | Cc1nnsc1CNC(=O)CSCc1ccccc1Cl | -7.02%
49 | CN1CC2(CCN(Cc3cc(Cl)ccc3OCC(=O)O)CC2)OC1=O | -8.9%
50 | Cc1c(Cl)cc(C(=O)N(CCO)Cc2nccn2C)cc1Cl | -0.75%
51 | CC1(C)Cc2c(cnn2-c2ccccc2)C(NC2CCSCC2)C1 (configuration not stated) | -5.66%
52 | Cc1nccc(-c2ccccc2)c1C(=O)N1CCC2(CCCO2)CC1 | 2.47%
53 | Cc1cc(C)cc(CCC(=O)N2CCN(c3cc(C)nc(N)n3)CC2)c1 | 6.95%
54 | CC(C)(C)c1ccn(C2(C(=O)O)CCN(c3ncccc3C#N)CC2)n1 | -2.37%
55 | COCCN(Cc1ccncc1)C(=O)C1COc2ccccc2C1 (configuration not stated) | -6.32%
56 | CC(=O)N[C@@H]1CN(C(=O)c2cc3sccc3[nH]2)C[C@H]1c1ccc(C)o1 | -3.33%
57 | Cc1cnccc1Cn1ccnc1C1CCOC1 (configuration not stated) | -7.66%
58 | COCCN(C)[C@@H]1c2ccccc2C2(CCNCC2)[C@H]1O | -4.67%
59 | CCc1n[nH]c(C(=O)NCCn2ccnc2C)c1C | -5.75%
60 | c1ccc(C2CN(C3CC3)CC3(CCN(Cc4ncc[nH]4)CC3)C2)cc1 (configuration not stated) | -6.48%
61 | CC1(C)CNC(=O)c2nc(CCN3CCCCC3CO)[nH]c2C1 (configuration not stated) | 4.33%
62 | COc1ccc(CN2CCC=C(C(C)NC(C)=O)C2)cc1 (configuration not stated) | -10.1%
63 | COCCCC1CCCCN1Cc1cc(F)ccc1-n1cccn1 (configuration not stated) | 9.72%
64 | Cc1nc(CN2CC(=O)N(C)c3ccccc3C2=O)no1 | -1.75%
65 | CC(=O)N1C[C@H](NS(=O)(=O)N2CCOCC2)[C@@H](c2ccc(C)o2)C1 | -7.85%
66 | COc1ccc(CN(Cc2ccsc2)CC2CCCO2)cn1 (configuration not stated) | -2.5%
67 | COc1ccccc1OC1CN(C(=O)C(c2ccc(F)cc2)N(C)C)C1 (configuration not stated) | -1.1%
68 | NCC1CN(c2nc(-c3cccnc3)nc3c2CCNCC3)CCO1 (configuration not stated) | 26.4%
69 | NC(=O)NCC(=O)N1CCC(c2cc(-c3ccccc3Cl)n[nH]2)CC1 | -4.95%

Row | Structure (SMILES) | cytotoxicity at 70.5 h
70 | CSCCNC(=O)c1coc(COc2ccc3sc(C)nc3c2)n1 | -13.9%
71 | c1ccc2c(c1)ccn2CCCNC1CCOC2(CCOCC2)C1 (configuration not stated) | 32.9%
72 | COCCCN1C(=O)CC[C@H]2CN(Cc3ncc[nH]3)CC[C@H]21 | 8.43%
73 | Cn1cc(C(=O)N2CC[C@@]3(O)CCN(C(=O)C4CCC4)C[C@H]3C2)cn1 | 3.54%
74 | CC(C)c1noc(-c2ccc(NCCCC3CCOC3)nc2)n1 (configuration not stated) | -0.0541%
75 | Cc1cc(N2CCC(n3cc(CN4CCC[C@@H]4CO)nn3)CC2)ccn1 | -8.62%
76 | Cn1ccnc1CN1CCC(Cn2cc(-c3ccncc3)nn2)CC1 | 3.24%
77 | O=C(NC1CCCCC1)[C@H]1CNC[C@@H](COc2cccnc2)C1 | -3.95%
78 | Cc1ccc(-c2cc(CNc3ncnc4c3CCNCC4)no2)cc1 | 1.89%
79 | CSc1ccccc1CCC1CCS(=O)(=O)C1 (configuration not stated) | -1.45%
80 | O=C(c1ccc(Cl)cc1F)N1CCC(Cn2cc(CO)nn2)CC1 | -5.57%
81 | O=C(CCn1ccc2ncccc2c1=O)N1CCCC1 | 0.26%
82 | COc1c(F)cccc1C(=O)N(C)Cc1nc(-c2ccccn2)no1 | -6.48%
83 | O=C1CCC2(CCCN(CCn3cc(Cl)cn3)C2)CN1C1CCCC1 (configuration not stated) | -19.7%
84 | CCN(Cc1ccncc1)C1CCCN(Cc2ccc(F)cc2OC)C1 (configuration not stated) | -1.99%
85 | Cc1nc(CNC2CC(=O)N(CCc3cccc(Cl)c3)C2)c[nH]1 (configuration not stated) | -5.42%
86 | CCn1c(CC2CCN(C(=O)c3cc(CC(C)C)on3)CC2)n[nH]c1=O | -2.52%
87 | CC(=O)N1CCCN(C(C(=O)O)c2ccc(C)cc2C)CC1 (configuration not stated) | -10.9%
88 | Cc1cc(C(=O)NCCCn2nccc2C2CC2)c(=O)[nH]c1C | -14.7%
89 | CCCOCCn1ncc(N2CCc3ccccc3C2)cc1=O | -1.9%
90 | COc1ccc(C(=O)N2CCC(Oc3ccc(C)cc3)(C(=O)O)CC2)o1 | 0.709%
91 | CC(c1cccc(-c2ncccc2C#N)c1)N(C)C (configuration not stated) | -15.1%
92 | O=C(CCC1CCN(C2Cc3ccccc3C2)CC1)NCC1CCCO1 (configuration not stated) | 25.6%

Row | Structure (SMILES) | cytotoxicity at 70.5 h
93 | Cc1cnc(C)c(N2CCC(Cc3ccccc3Cl)(C(=O)O)CC2)n1 | -8.45%
94 | CCn1cc(C(=O)NCCN2CCCc3ccccc32)c(C)n1 | -0.0816%
95 | CNc1cc(C(=O)NCCC2=CSC3=NCCCN23)ccn1 | 1.26%
96 | CC(C)c1nc(CN(C)C(=O)c2ccc3c(c2)OCO3)cs1 | -9.84%
97 | CCNC(=O)[C@@H]1C[C@H](NC(=O)c2cc(CC)n[nH]2)CN1Cc1ccsc1 | -6.78%
98 | Cc1cc(C)n(CCN(C)c2ccc(-c3nc(C4CC4)no3)cn2)n1 | 10.5%
99 | Clc1ccccc1CCn1ccnc1-c1cn(C2CCNCC2)nn1 | -8.18%
100 | Cc1ccc2c(c1)SCC(=O)N2Cc1noc(C2CC2)n1 | 16.3%
101 | CNC(=O)C1CCCN1c1nc(C)c2ccccc2n1 (configuration not stated) | -16.3%
102 | Cc1ccc(C(=O)N2CCCC(Nc3ccc(F)cc3)C2)cc1 (configuration not stated) | -1.63%
103 | CN(CCn1ccc2ccccc21)C(=O)CS(C)(=O)=O | 18%
104 | COCC[C@]1(O)CCN(Cc2nnc(C)s2)C[C@H]1C | -9.14%
105 | CN(C)C(=O)N1CCN(Cc2ccc3occc3c2)[C@H]2CS(=O)(=O)C[C@H]21 | -3.65%
106 | O=C(c1ccc(S(=O)(=O)N2CCSCC2)cc1)N1CCC(O)C1 (configuration not stated) | -17.3%
107 | Cc1nnc(CNC(=O)CC2CCc3ccccc32)o1 (configuration not stated) | 25.8%
108 | Cc1nc2c(c(NC3CCN(Cc4ccccc4)CC3)n1)CCNCC2 | 0.337%
109 | Cc1ncccc1OC1(C(=O)NCc2noc(C(C)C)n2)CCNCC1 | -5.62%
110 | CCCNC(=O)N1CCC(c2nnc(Cn3cccn3)n2C2CC2)CC1 | -10.5%
111 | CCOC(=O)CC(C)NC(=O)c1cn(Cc2ccccc2F)nn1 (configuration not stated) | -1.02%
112 | Cn1cc(C(=O)N2CC[C@@]3(O)CCN(C4CCCCC4)C[C@H]3C2)cn1 | -2.94%
